Measured values published in US6362369B1, “Phthalic acid diamide derivatives fluorine-containing aniline compounds as starting material, agricultural and horticultural insecticides, and a method for application of the insecticides” (Nihon Nohyaku Co., Ltd., priority 1997, dated 2002).

Legend:
Format in all cases: in vivo
[1] = test system: rice leafroller (Cnaphalocrocis medinalis); test: Insecticidal effect on rice leafroller (Test Example 3); settings: 500 ppm, 25° C., humidity 70%; for Insecticidal effect (Test Example 3), judged from mortality / Insecticidal effect on rice leafroller (Test Example 3), judged grade: rice lamina dip; for Insecticidal effect (Test Example 3), judged from mortality: 4 days after inoculation; for Insecticidal effect, Test Example 3: rice lamina immersed; for Insecticidal effect, Test Example 3 / Insecticidal effect on rice leafroller (Test Example 3), judged grade: four days after inoculation; for Insecticidal effect on rice leafroller (Test Example 3), judged grade: third-instar larvae
Procedure, shortened: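 Groups of 10 third-instar larvae, in triplicate, are placed on air-dried lamina resting on wet filter paper. Incubation runs four days at 25° C with 70% humidity before survivors and dead are tallied.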

[2] = test system: common cutworm (Spodoptera Litura); test: Insecticidal effect on common cutworm (Test Example 2); settings: 500 ppm, 25° C.; for Insecticidal effect (Test Example 2), judged from mortality / Insecticidal effect on common cutworm (Test Example 2), judged grade: cabbage leaf dip; for Insecticidal effect (Test Example 2), judged from mortality: 8 days after inoculation; for Insecticidal effect, Test Example 2: cabbage leaf immersed; for Insecticidal effect, Test Example 2 / Insecticidal effect on common cutworm (Test Example 2), judged grade: eight days after inoculation; for Insecticidal effect on common cutworm (Test Example 2), judged grade: second-instar larvae
Procedure, shortened: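 Second-instar larvae placed in 9 cm Petri dishes with air-dried treated material, held at 25 °C. Dead and live insects counted 8 days after inoculation; mortality calculated and scored against a set criterion. Triplicate groups of 10 insects.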

[3] = test system: diamondback moth (Plutella xylostella); test: Insecticidal effect on diamondback moth (Test Example 1); settings: for Insecticidal effect (Test Example 1), judged from mortality / Insecticidal effect, Test Example 1: diamondback moth; for Insecticidal effect (Test Example 1), judged from mortality: judged by the criterion of Test Example 1; for Insecticidal effect on diamondback moth (Test Example 1), judged grade: mortality judged according to the criterion shown in Test Example 1
Procedure, shortened: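 Chinese cabbage seedlings carrying eggs laid by released adult moths were immersed in treatment, air-dried and held at 25° C. Hatched insects were counted six days after immersion, and mortality was calculated and scored against a fixed criterion. Three replicate groups of 10 insects were used.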

[4] = third-instar larvae of rice leafroller
[5] = second-instar larvae of common cutworm
[6] = rice leafroller third-instar larvae
[7] = common cutworm second-instar larvae
[8] = mortality judged by criterion of Test Example 1
[9] = judged by the mortality criterion of Test Example 1

Cc1cc(C(F)(F)C(F)(F)F)c(Cl)cc1NC(=O)c1cccc(I)c1C(=O)NC(C)(C)C [compound 1654]
Insecticidal effect (Test Example 3), judged from mortality [1, 4]: A (100) | Insecticidal effect (Test Example 2), judged from mortality [2, 5]: A (100) | Insecticidal effect (Test Example 1), judged from mortality [3]: A (100)

CC(C)(C)NC(=O)c1c(I)cccc1C(=O)Nc1ccc(C(F)(F)C(F)(F)F)cc1C(F)(F)F [compound 1429]
Insecticidal effect, Test Example 3 [1, 6]: A (100) | Insecticidal effect, Test Example 2 [2, 7]: A (100) | Insecticidal effect, Test Example 1 [3, 8]: A (100)

CC(C)NC(=O)c1c(Cl)cccc1C(=O)Nc1ccc(OC(F)F)cc1C(F)(F)F [compound 163]
Insecticidal effect, Test Example 3 [1, 4]: A (100) | Insecticidal effect, Test Example 2 [2, 5]: A (100) | Insecticidal effect, Test Example 1 [3, 9]: A (100)

CCN(CC)C(=O)c1c(Cl)cccc1C(=O)Nc1ccc(C(F)(F)F)cc1 [compound 1545]
Insecticidal effect (Test Example 3), judged from mortality [1, 4]: A (100) | Insecticidal effect (Test Example 2), judged from mortality [2, 5]: D (79-50) | Insecticidal effect (Test Example 1), judged from mortality [3]: A (100)

Cc1cc(OC(F)F)c(Cl)cc1NC(=O)c1cccc(F)c1C(=O)NC(C)C [compound 517]
Insecticidal effect on rice leafroller (Test Example 3), judged grade [1]: A (100) | Insecticidal effect on common cutworm (Test Example 2), judged grade [2]: A (100) | Insecticidal effect on diamondback moth (Test Example 1), judged grade [3]: A (100)

CC(C)NC(=O)c1c(C(=O)Nc2ccc(Cl)c(Cl)c2)cccc1[N+](=O)[O-] [compound 636]
Insecticidal effect on rice leafroller (Test Example 3), judged grade [1]: A (100) | Insecticidal effect on common cutworm (Test Example 2), judged grade [2]: D (79-50) | Insecticidal effect on diamondback moth (Test Example 1), judged grade [3]: A (100)

CC(C)(C)NC(=O)c1ccccc1C(=O)Nc1ccc(OC(F)(F)F)cc1 [compound 929]
Insecticidal effect on rice leafroller (Test Example 3), judged grade [1]: A (100) | Insecticidal effect on common cutworm (Test Example 2), judged grade [2]: A (100) | Insecticidal effect on diamondback moth (Test Example 1), judged grade [3]: A (100)

CC(C)(C)NC(=O)c1c(Cl)cccc1C(=O)Nc1ccc(OC(F)(F)F)cc1 [compound 936]
Insecticidal effect on rice leafroller (Test Example 3), judged grade [1]: A (100) | Insecticidal effect on common cutworm (Test Example 2), judged grade [2]: A (100) | Insecticidal effect on diamondback moth (Test Example 1), judged grade [3]: A (100)

CCc1cc(Cl)ccc1NC(=O)c1cccc([N+](=O)[O-])c1C(=O)NC(C)C [compound 667]
Insecticidal effect on rice leafroller (Test Example 3), judged grade [1]: A (100) | Insecticidal effect on common cutworm (Test Example 2), judged grade [2]: A (100) | Insecticidal effect on diamondback moth (Test Example 1), judged grade [3]: A (100)

Cc1ccc(Cl)cc1NC(=O)c1cccc(Cl)c1C(=O)NC(C)C [compound 120]
Insecticidal effect, Test Example 3 [1, 4]: A (100) | Insecticidal effect, Test Example 2 [2, 5]: D (79-50) | Insecticidal effect, Test Example 1 [3, 9]: A (100)

Cc1cc(C(F)(F)C(F)(F)F)ccc1NC(=O)c1cccc(OC(F)(F)F)c1C(=O)NC(C)C [compound 1191]
Insecticidal effect, Test Example 3 [1, 6]: A (100) | Insecticidal effect, Test Example 2 [2, 7]: A (100) | Insecticidal effect, Test Example 1 [3, 8]: A (100)

CCOCCN(CCOCC)C(=O)c1c(I)cccc1C(=O)Nc1ccc(C(F)(F)C(F)(F)F)cc1C [compound 1046]
Insecticidal effect, Test Example 3 [1, 6]: A (100) | Insecticidal effect, Test Example 2 [2, 7]: A (100) | Insecticidal effect, Test Example 1 [3, 8]: A (100)

Cc1cc(C(F)(F)C(F)(F)F)ccc1NC(=O)c1cccc(I)c1C(=O)N1CCOCC1 [compound 1070]
Insecticidal effect, Test Example 3 [1, 6]: A (100) | Insecticidal effect, Test Example 2 [2, 7]: A (100) | Insecticidal effect, Test Example 1 [3, 8]: A (100)

CCNC(=O)c1c(C(=O)Nc2cc(Cl)ccc2C)cccc1[N+](=O)[O-] [compound 10]
Insecticidal effect, Test Example 3 [1, 4]: D (79-50) | Insecticidal effect, Test Example 2 [2, 5]: D (79-50) | Insecticidal effect, Test Example 1 [3, 9]: A (100)

Cc1cc(Oc2ncc(C(F)(F)F)cc2Cl)ccc1NC(=O)c1cccc(Cl)c1C(=O)NC(C)C [compound 159]
Insecticidal effect, Test Example 3 [1, 4]: A (100) | Insecticidal effect, Test Example 2 [2, 5]: A (100) | Insecticidal effect, Test Example 1 [3, 9]: A (100)

CC(C)NC(=O)c1c(I)cccc1C(=O)Nc1ccc(OC(F)(F)F)cc1Cl [compound 408]
Insecticidal effect, Test Example 3 [1, 4]: A (100) | Insecticidal effect, Test Example 2 [2, 5]: B (99-90) | Insecticidal effect, Test Example 1 [3, 9]: A (100)

CCN(C(=O)c1c(I)cccc1C(=O)Nc1ccc(C(F)(F)C(F)(F)F)cc1C)C(C)C [compound 1159]
Insecticidal effect, Test Example 3 [1, 6]: A (100) | Insecticidal effect, Test Example 2 [2, 7]: A (100) | Insecticidal effect, Test Example 1 [3, 8]: A (100)

Cc1cc(OC(F)(F)C(F)F)ccc1NC(=O)c1ccccc1C(=O)NC(C)(C)C [compound 1060]
Insecticidal effect, Test Example 3 [1, 6]: A (100) | Insecticidal effect, Test Example 2 [2, 7]: A (100) | Insecticidal effect, Test Example 1 [3, 8]: A (100)

Cc1cc(C#CC(C)(C)C)ccc1NC(=O)c1cccc(I)c1C(=O)NC(C)C [compound 1305]
Insecticidal effect, Test Example 3 [1, 6]: A (100) | Insecticidal effect, Test Example 2 [2, 7]: A (100) | Insecticidal effect, Test Example 1 [3, 8]: A (100)

Cc1cc(C(F)(F)C(F)(F)F)ccc1NC(=O)c1cccc(Cl)c1C(=O)N[C@H](C)CO [compound 1460]
Insecticidal effect (Test Example 3), judged from mortality [1, 4]: A (100) | Insecticidal effect (Test Example 2), judged from mortality [2, 5]: C (89-80) | Insecticidal effect (Test Example 1), judged from mortality [3]: A (100)

CCNC(=O)c1c(Cl)cccc1C(=O)Nc1ccc(C(F)(F)C(F)(F)F)cc1Cl [compound 1489]
Insecticidal effect (Test Example 3), judged from mortality [1, 4]: A (100) | Insecticidal effect (Test Example 2), judged from mortality [2, 5]: A (100) | Insecticidal effect (Test Example 1), judged from mortality [3]: A (100)

CC(C)NC(=O)c1cccc(F)c1C(=O)Nc1ccc(OC(F)F)cc1C(F)(F)F [compound 579]
Insecticidal effect on rice leafroller (Test Example 3), judged grade [1]: A (100) | Insecticidal effect on common cutworm (Test Example 2), judged grade [2]: A (100) | Insecticidal effect on diamondback moth (Test Example 1), judged grade [3]: A (100)

Cc1cc(OC(F)F)ccc1NC(=O)c1ccccc1C(=O)NC(C)C [compound 58]
Insecticidal effect, Test Example 3 [1, 4]: A (100) | Insecticidal effect, Test Example 2 [2, 5]: A (100) | Insecticidal effect, Test Example 1 [3, 9]: A (100)

CC(C)NC(=O)c1c(I)cccc1C(=O)Nc1ccc2c(c1Cl)OC(F)C(F)(F)O2 (stereo not drawn) [compound 1733]
Insecticidal effect (Test Example 3), judged from mortality [1, 4]: A (100) | Insecticidal effect (Test Example 2), judged from mortality [2, 5]: A (100) | Insecticidal effect (Test Example 1), judged from mortality [3]: A (100)

Cc1cc(C(F)(F)C(F)(F)F)ccc1NC(=O)c1cccc(Br)c1C(=O)NC(C)C [compound 278]
Insecticidal effect, Test Example 3 [1, 4]: A (100) | Insecticidal effect, Test Example 2 [2, 5]: A (100) | Insecticidal effect, Test Example 1 [3, 9]: A (100)

CC(C)NC(=O)c1c(I)cccc1C(=O)Nc1ccc(OC(F)(F)F)cc1Br [compound 406]
Insecticidal effect, Test Example 3 [1, 4]: A (100) | Insecticidal effect, Test Example 2 [2, 5]: A (100) | Insecticidal effect, Test Example 1 [3, 9]: A (100)

Cc1cc(C(F)(C(F)(F)F)C(F)(F)F)cc(C)c1NC(=O)c1cccc(I)c1C(=O)NC(C)C [compound 1716]
Insecticidal effect (Test Example 3), judged from mortality [1, 4]: A (100) | Insecticidal effect (Test Example 2), judged from mortality [2, 5]: A (100) | Insecticidal effect (Test Example 1), judged from mortality [3]: A (100)

Cc1cc(OC(F)(F)C(F)F)c(Cl)cc1NC(=O)c1cccc(I)c1C(=O)NC(C)C [compound 391]
Insecticidal effect, Test Example 3 [1, 4]: A (100) | Insecticidal effect, Test Example 2 [2, 5]: A (100) | Insecticidal effect, Test Example 1 [3, 9]: A (100)

Cc1cc(C(F)(C(F)(F)F)C(F)(F)F)ccc1NC(=O)c1cccc(Cl)c1C(=O)NC(C)(C)C [compound 1038]
Insecticidal effect, Test Example 3 [1, 6]: A (100) | Insecticidal effect, Test Example 2 [2, 7]: A (100) | Insecticidal effect, Test Example 1 [3, 8]: A (100)

CC(C)NC(=O)c1c(Cl)cccc1C(=O)Nc1ccc(OC(F)(F)F)cc1Cl [compound 135]
Insecticidal effect, Test Example 3 [1, 4]: A (100) | Insecticidal effect, Test Example 2 [2, 5]: A (100) | Insecticidal effect, Test Example 1 [3, 9]: A (100)

CC(C)NC(=O)c1c(I)cccc1C(=O)Nc1ccc2c(c1)OC(F)(F)C2(F)F [compound 974]
Insecticidal effect, Test Example 3 [1, 6]: A (100) | Insecticidal effect, Test Example 2 [2, 7]: A (100) | Insecticidal effect, Test Example 1 [3, 8]: A (100)

CCNC(=O)c1cccc(I)c1C(=O)Nc1ccc(C(F)(F)C(F)(F)F)cc1C [compound 1314]
Insecticidal effect, Test Example 3 [1, 6]: A (100) | Insecticidal effect, Test Example 2 [2, 7]: A (100) | Insecticidal effect, Test Example 1 [3, 8]: A (100)

Cc1cc(OC(F)(F)F)ccc1NC(=O)c1cccc(I)c1C(=O)NC(C)(C)CCl [compound 1627]
Insecticidal effect (Test Example 3), judged from mortality [1, 4]: A (100) | Insecticidal effect (Test Example 2), judged from mortality [2, 5]: A (100) | Insecticidal effect (Test Example 1), judged from mortality [3]: A (100)

CSc1ccc(NC(=O)c2cccc(Br)c2C(=O)NC(C)C)c(C)c1 [compound 296]
Insecticidal effect, Test Example 3 [1, 4]: A (100) | Insecticidal effect, Test Example 2 [2, 5]: A (100) | Insecticidal effect, Test Example 1 [3, 9]: A (100)

Cc1cc(OC(F)(F)C(F)(F)Br)ccc1NC(=O)c1cccc(I)c1C(=O)NC(C)C [compound 380]
Insecticidal effect, Test Example 3 [1, 4]: A (100) | Insecticidal effect, Test Example 2 [2, 5]: A (100) | Insecticidal effect, Test Example 1 [3, 9]: A (100)

Cc1cc(C(F)(F)C(F)(F)F)ccc1NC(=O)c1cccc(Cl)c1C(=O)NC(C)(C)C#Cc1ccc(Br)cn1 [compound 1649]
Insecticidal effect (Test Example 3), judged from mortality [1, 4]: A (100) | Insecticidal effect (Test Example 2), judged from mortality [2, 5]: A (100) | Insecticidal effect (Test Example 1), judged from mortality [3]: A (100)
